Source: patent publication US11261190B2, “Dihydropyrimidine compounds and uses thereof in medicine” (SUNSHINE LAKE PHARMA CO., LTD., priority 2017, dated 2022)
pEC50: −log10 of the molar value.

Key:
[1] = tested on: HBV; assay: Anti HBV activity in vitro, viral DNA from HepG2.2.15 cells quantified by qPCR; format: cell-based; conditions: Hepatitis B virus, qPCR of viral DNA in supernatant, read-out: EC50 against HBV replication
Procedure: Test 1: Test Method of EC50 of Anti HBV
HBV Cell Line and Culture Conditions
HepG2.2.15 (SELLS, PNAS, 1987 and SELLS, JV, 1988) chromosomes have an integrated complete HBV genome, and stably express viral RNA and viral protein. HepG2.2.15 cells can secrete mature HBV particles, HBsAg and HBeAg to medium. HepG2.2.15 cells were cultured in DMEM containing 10% fetal bovine serum, 100 U/mL penicillin, 100 U/mL streptomycin, 1% non essential amino acid, 1 mM sodium pyruvate and 300 µg/mL G418.
Viral particles DNA secreted from HepG2.2.15 cells can be quantified by qPCR, and the effect of the compound on viral replication can be detected.
Test of Anti HBV Activity In Vitro
8000 HepG 2.2.15 cells per well were seeded into a 96-well plate, the plate was cultured at 37° C. and 5% CO2 for 3 days till the cells grew to full wells. Old liquid medium can be removed and replaced with new medium (200 μL) on day 0.
Formulating the compound and treating the cells in the experiment of anti virus: the compound was dissolved in DMSO to a concentration of 30 mM, and then the compound solution was diluted with DMSO to a concentration of […], and then eight dilutions at 4 fold were performed, the highest concentration is 800 μM. The serial diluted compound was added to the above plate at 1 μL per well, the highest final concentration in the experiment is 4 μM (200 fold dilution). TDF (tenofovir dipiroxil fumarate, Selleck, Cat S1400) has a highest concentration of 4 μM as a positive control. 1 μL of DMSO was added in to the positive control well at a final concentration of 0.5%, TDF was added in to the positive control well at a final concentration of 1 μM.
Detection of Viral Genomic DNA by qPCR
Primer: HBV-For-202, […]; HBV-Rev-315, […]. Copies of virus can be calculated using a standard curve plotted by using plasmid containing HBV genome and using SYBR Premix Ex Taq II Takara DRR081S kit and 1 μL cell culture supernatant as a template. EC50 values of the compound on viral replication were calculated by a four parametric nonlinear regression model using Graphpad Prism 5 software to manage concentration—viral copy number.

[2] = PK test on SD rats; format: in vivo; conditions: for AUC(0-inf) / AUC(0-t) / Tmax: male, rat, plasma
Procedure: The PK test method of the compound in vivo of SD rats (purchased from Hunan slack Jing Da laboratory animal Co., Ltd, weight: […] male, ages of 2-3 months, 3 per oral group, 3 per intravenous injection group):
The Rats were administered intragastrically with the test compound at doses of 2.5 mg/kg or 5 mg/kg or administered intravenously with the test compound at doses of 1 mg/kg.
Blood samples were taken at 0.083, 0.25, 0.5, 1, 2, 5, 7 and 24 hours from vein after the administration, and collected in anticoagulation tube with EDTA-K2. The test compounds were extracted from plasma samples by liquid-liquid extraction. Then quantitative analysis was performed on a triple-quadrupole tandem mass spectrometer using multiple reaction monitoring (MRM). Pharmacokinetic parameters were calculated using a noncompartmental method by WinNonLin 6.3 software.

[3] = Cytotoxicity in HepG2.2.15 cells (CellTiter Glo); format: cell-based; conditions: human, highest concentration 150 μM
Procedure: Test 2: Cytotoxicity and Selectivity Index
Methods of Testing Cytotoxicity and Selectivity Index
The serial diluted compound was added to a 384 wells plate at 50 μL HepG2.2.15 cell per well (3000 cells per well), the highest final concentration in the experiment is 150 μM (200 fold dilution). The plate was cultured at 37° C. in an incubator with C02 for 4 days, and cytotoxicity of the compound was detected using CellTiter Glo agent.
The cytotoxicity of the compound was calculated using the following formulate, cytotoxicity (%)=100−(detection value/mean of DMSO control wells values×100). CC50 values were calculated by a four parametric nonlinear regression model using Graphpad Prism 5 software to manage concentration−cytotoxicity (%). […]

## COC(=O)C1=C(CN2CCN3C(=O)N(c4ccc(C(C)CC(=O)O)cc4)C[C@@H]3C2)NC(c2nccs2)=N[C@H]1c1ccc(F)cc1Cl (stereo partly drawn) [Example 19, 3-(4-((S)-7-(((R)-6-(2-chloro-4-fluorophenyl)-5-(methoxycarbonyl)-2-(thiazol-2-yl)-3,6-dihydropyrimidin-4-yl)methyl)-3-oxohexahydroimidazo[1,5-a]pyrazin-2(3H)-yl)phenyl) butanoic Acid]
[1]
  pEC50: 8.52
[2]; iv, 1 mg/kg
  AUC(0-inf): 5520 ng·h/mL
  AUC(0-t): 5520 ng·h/mL
  Tmax: 4.98 min
[2]; po, 5 mg/kg
  AUC(0-inf): 20300 ng·h/mL
  AUC(0-t): 20300 ng·h/mL
  Tmax: 30 min
  F: 73.4%
[3]
  CC50 at 4 days: > 150 µM

## COC(=O)C1=C(CN2CCN3C(=O)N(c4ccc(CCC(=O)O)cc4)C[C@@H]3C2)NC(c2nccs2)=N[C@H]1c1ccc(F)cc1Cl [Example 13, 3-(4-((S)-7-(((R)-6-(2-chloro-4-fluorophenyl)-5-(methoxycarbonyl)-2-(thiazol-2-yl)-3,6-dihydropyrimidin-4-yl)methyl)-3-oxohexahydroimidazo[1,5-a]pyrazin-2(3H)-yl)phenyl)propionic Acid]
[1]
  pEC50: 8.40
[2]; iv, 1 mg/kg
  AUC(0-inf): 1320 ng·h/mL
  AUC(0-t): 1320 ng·h/mL
  Tmax: 4.98 min
[2]; po, 5 mg/kg
  AUC(0-inf): 3080 ng·h/mL
  AUC(0-t): 3050 ng·h/mL
  Tmax: 30 min
  F: 31.2%
[3]
  CC50 at 4 days: > 150 µM

## COC(=O)C1=C(CN2CCN3C(=O)N(c4ccc(CC(C)(C)C(=O)O)cc4)C[C@@H]3C2)NC(c2nccs2)=N[C@H]1c1ccc(F)cc1Cl [Example 17, 3-(4-((S)-7-(((R)-6-(2-chloro-4-fluorophenyl)-5-(methoxycarbonyl)-2-(thiazol-2-yl)-3,6-dihydropyrimidin-4-yl)methyl)-3-oxohexahydroimidazo[1,5-a]pyrazin-2(3H)-yl)phenyl)-2,2-dimethylpropionic Acid]
[1]
  pEC50: 8.40
[2]; iv, 1 mg/kg
  AUC(0-inf): 979 ng·h/mL
  AUC(0-t): 977 ng·h/mL
  Tmax: 4.98 min
[2]; po, 5 mg/kg
  AUC(0-inf): 5580 ng·h/mL
  AUC(0-t): 4710 ng·h/mL
  Tmax: 60 min
  F: 114.1%
[3]
  CC50 at 4 days: > 150 µM

## COC(=O)C1=C(CN2CCN3C(=O)N(c4cccc(CC(=O)O)c4)C[C@@H]3C2)NC(c2nccs2)=N[C@H]1c1ccc(F)cc1Cl [Example 39, 2-(3-((S)-7-(((R)-6-(2-chloro-4-fluorophenyl)-5-(methoxycarbonyl)-2-(thiazol-2-yl)-3,6-dihydropyrimidin-4-yl)methyl)-3-oxohexahydroimidazo[1,5-a]pyrazin-2(3H)-yl)phenyl) acetic Acid]
[1]
  pEC50: 7.54
[3]
  CC50 at 4 days: > 150 µM

## COC(=O)C1=C(CN2CCN3C(=O)N(c4nc(CCC(=O)O)cs4)C[C@@H]3C2)NC(c2nccs2)=N[C@H]1c1ccc(F)cc1Cl [Example 20, 3-(2-((S)-7-(((R)-6-(2-chloro-4-fluorophenyl)-5-(methoxycarbonyl)-2-(thiazol-2-yl)-3,6-dihydropyrimidin-4-yl)methyl)-3-oxohexahydroimidazo[1,5-a]pyrazin-2(3H)-yl)thiazol-4-yl)propionic Acid]
[1]
  pEC50: 8.30
[3]
  CC50 at 4 days: > 150 µM

## COC(=O)CCc1ccc(N2C[C@@H]3CN(CC4=C(C(=O)OC)[C@H](c5ccc(F)cc5Cl)N=C(c5nccs5)N4)CCN3C2=O)cc1 [Example 25, (R)-methyl 4-(2-chloro-4-fluorophenyl)-6-(((S)-2-(4-(3-methoxy-3-oxopropyl)phenyl)-3-oxohexahydroimidazo[1,5-a]pyrazin-7(1H)-yl)methyl)-2-(thiazol-2-yl)-1,4-dihydropyrimidine-5-carboxylate]
[1]
  pEC50: 8.30
[3]
  CC50 at 4 days: > 150 µM

## COC(=O)C1=C(CN2CCN3C(=O)N(c4ccc(CCC(=O)O)cc4F)C[C@@H]3C2)NC(c2nccs2)=N[C@H]1c1ccc(F)cc1Cl [Example 34, 3-(4-((S)-7-(((R)-6-(2-chloro-4-fluorophenyl)-5-(methoxycarbonyl)-2-(thiazol-2-yl)-3,6-dihydropyrimidin-4-yl)methyl)-3-oxohexahydroimidazo[1,5-a]pyrazin-2(3H)-yl)-3-fluorophenyl)propionic Acid]
[1]
  pEC50: 7.80
[3]
  CC50 at 4 days: > 150 µM

## COC(=O)C1=C(CN2CCN3C(=O)N(c4ccc(C(NC(=O)OC(C)(C)C)C(=O)O)cc4)C[C@@H]3C2)NC(c2nccs2)=N[C@H]1c1ccc(F)cc1Cl (stereo partly drawn) [Example 46, 2-((tert-butoxycarbonyl)amino)-2-(4-((S)-7-(((R)-6-(2-chloro-4-fluorophenyl)-5-(methoxycarbonyl)-2-(thiazol-2-yl)-3,6-dihydropyrimidin-4-yl)methyl)-3-oxohexahydroimidazo[1,5-a]pyrazin-2(3H)-yl)phenyl)acetic Acid]
[1]
  pEC50: 7.66
[3]
  CC50 at 4 days: > 150 µM

## COCC(C)(C)NC(=O)CCc1ccc(N2C[C@@H]3CN(CC4=C(C(=O)OC)[C@H](c5ccc(F)cc5Cl)N=C(c5nccs5)N4)CCN3C2=O)cc1 [Example 44, (R)-methyl 4-(2-chloro-4-fluorophenyl)-6-(((S)-2-(4-(3-((1-methoxy-2-methylpropan-2-yl)amino)-3-oxopropyl)phenyl)-3-oxohexahydroimidazo[1,5-a]pyrazin-7(1H)-yl)methyl)-2-(thiazol-2-yl)-1,4-dihydropyrimidine-5-carboxylate]
[1]
  pEC50: 8.00
[3]
  CC50 at 4 days: > 150 µM

## COC(=O)C1=C(CN2CCN3C(=O)N(c4ccc(CC(=O)O)cc4)C[C@@H]3C2)NC(c2nccs2)=N[C@H]1c1ccc(F)cc1Cl [Example 14, 2-(4-((S)-7-(((R)-6-(2-chloro-4-fluorophenyl)-5-(methoxycarbonyl)-2-(thiazol-2-yl)-3,6-dihydropyrimidin-4-yl)methyl)-3-oxohexahydroimidazo[1,5-a]pyrazin-2(3H)-yl)phenyl)acetic Acid]
[1]
  pEC50: 8.15
[2]; iv, 1 mg/kg
  AUC(0-inf): 684 ng·h/mL
  AUC(0-t): 680 ng·h/mL
  Tmax: 4.98 min
[2]; po, 5 mg/kg
  AUC(0-inf): 2250 ng·h/mL
  AUC(0-t): 2250 ng·h/mL
  Tmax: 30 min
  F: 44%
[3]
  CC50 at 4 days: > 150 µM

## CCOC(=O)C1=C(CN2CCN3C(=O)N(c4ccc(CC(=O)O)cc4)C[C@@H]3C2)NC(c2nccs2)=N[C@H]1c1ccc(F)cc1Br [Example 26, 2-(4-((S)-7-(((R)-6-(2-bromo-4-fluorophenyl)-5-(ethoxycarbonyl)-2-(thiazol-2-yl)-3,6-dihydropyrimidin-4-yl)methyl)-3-oxohexahydroimidazo[1,5-a]pyrazin-2(3H)-yl)phenyl)acetic Acid]
[1]
  pEC50: 8.10
[3]
  CC50 at 4 days: > 150 µM

## CCOC(=O)C1=C(CN2CCN3C(=O)N(c4ccc(CCC(=O)O)cc4)C[C@@H]3C2)NC(c2nccs2)=N[C@H]1c1ccc(F)cc1Cl [Example 23, 3-(4-((S)-7-(((R)-6-(2-chloro-4-fluorophenyl)-5-(ethoxycarbonyl)-2-(thiazol-2-yl)-3,6-dihydropyrimidin-4-yl)methyl)-3-oxohexahydroimidazo[1,5-a]pyrazin-2(3H)-yl)phenyl)prop ionic Acid]
[1]
  pEC50: 8.15
[3]
  CC50 at 4 days: > 150 µM

## COC(=O)C1=C(CN2CCN3C(=O)N(c4ccc(/C(C)=C/C(=O)O)cc4)C[C@@H]3C2)NC(c2nccs2)=N[C@H]1c1ccc(F)cc1Cl [Example 54, (E)-3-(4-((S)-7-(((R)-6-(2-chloro-4-fluorophenyl)-5-(methoxycarbonyl)-2-(thiazol-2-yl)-3,6-dihydropyrimidin-4-yl)methyl)-3-oxohexahydroimidazo[1,5-a]pyrazin-2(3H)-yl)phenyl)-2-butenoic Acid]
[1]
  pEC50: 7.96
[3]
  CC50 at 4 days: > 150 µM

## COC[C@@H]1[C@H]2CN(c3ccc(CCC(=O)O)cc3)C(=O)N2CCN1CC1=C(C(=O)OC)[C@H](c2ccc(F)cc2Cl)N=C(c2nccs2)N1 [Example 51B]
[1]
  pEC50: 8.05
[3]
  CC50 at 4 days: > 150 µM
